Laboratory results as given in patent US8927563B2, “Kinase inhibitor” (Respivert Limited, priority 2013, dated 2015).
Read-outs that look alike come from different tables or passages of the source.

Columns and labels:
[1] = Pharmacokinetics after oral administration to rats; format: in vivo; details: oral 5 mg/kg, vehicle B
Method: Studies were conducted by Sai Life Sciences (Hinjewadi, Pune, India) to investigate the plasma pharmacokinetics and total colon tissue distribution of Compound I. In particular, pharmacokinetic studies were carried out in: • male C57BL/6 mice, following a single oral administration; and • male Wistar rats following a single intravenous or oral administration.

[2] = tested on: intestinal mucosa biopsies from ulcerative colitis patients; test: Human biopsy assay, cytokine release from biopsies of UC patients; format: cell-based; details: 1 μg/mL, 24 hours; relative to DMSO control 100%
Method: Intestinal mucosa biopsies are obtained from the inflamed regions of the colons of IBD patients. The biopsy material is cut into small pieces (2-3 mm) and placed on steel grids in an organ culture chamber at 37° C. in a 5% CO2/95% O2 atmosphere in serum-free media. DMSO control or test compound at the desired concentration are added to the tissue and incubated for 24 hr in the organ culture chamber. The supernatant is harvested for determination of IL-6, IL-8, IL-1β and TNFα levels by R&D ELISA.

B-Raf = B-Raf (Homo sapiens (Human), UniProt P15056); test: KINOMEscan binding of B-Raf to standard ligand
Method: (§1) Kinase enzyme binding activities of compounds disclosed herein may be determined using a proprietary assay which measures active site-directed competition binding to an immobilized ligand (Fabian, M. A. et al., Nature Biotechnol., 2005, 23:329-336). These assays may be conducted by DiscoverX (formerly Ambit; San Diego, Calif.). The percentage inhibition produced by incubation with a test compound may be calculated relative to the non-inhibited control.

[3] = Hydrolytic stability study; format: physicochemical; details: buffer, 1 mg/mL
Method: Chemical stability of Compound I was assessed in a mixture of DMSO and water (3:1) at a test compound concentration of 1 mg/mL
Sample Preparation • A 1.0 mg sample of test compound was dissolved in 750 μL of DMSO. Water (250 μL) was added slowly, ensuring no precipitation occurred.
Recording Stability • A 50 μL aliquot of the test solution was removed and analysed in duplicate by 5 μL HPLC injections. The peak area for the test compound was recorded following manual integration of the corresponding UV trace. • The test solution was heated to 60° C., with stirring, and 50 μL aliquots removed for HPLC analysis at 5 and 24 h timepoints.

GSK3α = GSK3α (Homo sapiens (Human), UniProt P49840); test: GSK3α enzyme inhibition (Method 2), Z-LYTE FRET; format: biochemical
Method: The enzyme inhibitory activities of compounds disclosed herein are determined by FRET using synthetic peptides labelled with both donor and acceptor fluorophores (Z-LYTE, Invitrogen Ltd., Paisley, UK).
The inhibitory activities of the compound of the invention against the GSK 3α enzyme isoform (Invitrogen), are evaluated by determining the level of activation/phosphorylation of the target peptide. The GSK3-α protein (500 ng/mL, 2.5 μL) is mixed with the test compound (2.5 μL at either 4 μg/mL, 0.4 μg/mL, 0.04 μg/mL, or 0.004 μg/mL) for 2 hr at RT. The FRET peptide (8 μM, 2.5 μL), which is a phosphorylation target for GSK3α, and ATP (40 μM, 2.5 μL) are then added to the enzyme/compound mixture and the resulting mixture incubated for 1 hr. Development reagent (protease, 5 μL) is added for 1 hr prior to detection in a fluorescence microplate reader (Varioskan® Flash, ThermoFisher Scientific).
In all cases, the site-specific protease cleaves non-phosphorylated peptide only and eliminates the FRET signal. Phosphorylation levels of each reaction are calculated using the ratio of coumarin emission (donor) over fluorescein emission (acceptor), for which high ratios indicate high phosphorylation and low ratios indicate low phosphorylation levels. […]

CYP3A4 = CYP3A4 (Homo sapiens (Human), UniProt P08684); test: CYP3A4 inhibition with and without preincubation; format: in vitro ADME; details: for inhibition at 15 µM: human, read-out: 15 μM % Inh
Method: Assessment of certain in vitro ADME (absorption, distribution, metabolism, and excretion) parameters for Compound I was conducted by BioFocus (Saffron Walden, UK). The results reveal that Compound I is cleared rapidly by human hepatocytes and that it has a reduced liability for time-dependent cytochrome P450 inhibition.

[4] = target: human ether a go-go (hERG) channel (Homo sapiens (Human), UniProt Q12809); test: hERG inhibition, IonWorks patch clamp electrophysiology; format: cell-based
Method: (§2) Compound I was tested for inhibition of the human ether a go-go (hERG) channel using IonWorks™ patch clamp electrophysiology at Essen Bioscience (Welwyn Garden City, England).

hERG = hERG (Homo sapiens (Human), UniProt Q12809); test: as above; format: cell-based; details: human, 3 μM
Method: as §2

non-mutant kinases = test: KinomeScan selectivity scores; format: binding
Method: as §1

Chain of CYP3A4 (P08684 whole entry): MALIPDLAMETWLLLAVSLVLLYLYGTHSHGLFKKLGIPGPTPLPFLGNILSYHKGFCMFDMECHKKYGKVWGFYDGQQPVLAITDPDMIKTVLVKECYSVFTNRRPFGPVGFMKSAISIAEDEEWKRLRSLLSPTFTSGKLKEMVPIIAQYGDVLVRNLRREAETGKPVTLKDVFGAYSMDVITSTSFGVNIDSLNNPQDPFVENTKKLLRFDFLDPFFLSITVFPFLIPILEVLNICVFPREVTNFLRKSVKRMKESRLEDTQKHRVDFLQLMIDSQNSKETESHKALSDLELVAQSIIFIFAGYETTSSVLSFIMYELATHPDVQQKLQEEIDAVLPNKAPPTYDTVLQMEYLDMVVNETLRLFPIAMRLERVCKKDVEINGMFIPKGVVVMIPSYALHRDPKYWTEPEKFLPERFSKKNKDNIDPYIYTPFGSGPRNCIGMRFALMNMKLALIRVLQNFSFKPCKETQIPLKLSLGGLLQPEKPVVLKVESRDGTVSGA
Chain of B-Raf (P15056 whole entry): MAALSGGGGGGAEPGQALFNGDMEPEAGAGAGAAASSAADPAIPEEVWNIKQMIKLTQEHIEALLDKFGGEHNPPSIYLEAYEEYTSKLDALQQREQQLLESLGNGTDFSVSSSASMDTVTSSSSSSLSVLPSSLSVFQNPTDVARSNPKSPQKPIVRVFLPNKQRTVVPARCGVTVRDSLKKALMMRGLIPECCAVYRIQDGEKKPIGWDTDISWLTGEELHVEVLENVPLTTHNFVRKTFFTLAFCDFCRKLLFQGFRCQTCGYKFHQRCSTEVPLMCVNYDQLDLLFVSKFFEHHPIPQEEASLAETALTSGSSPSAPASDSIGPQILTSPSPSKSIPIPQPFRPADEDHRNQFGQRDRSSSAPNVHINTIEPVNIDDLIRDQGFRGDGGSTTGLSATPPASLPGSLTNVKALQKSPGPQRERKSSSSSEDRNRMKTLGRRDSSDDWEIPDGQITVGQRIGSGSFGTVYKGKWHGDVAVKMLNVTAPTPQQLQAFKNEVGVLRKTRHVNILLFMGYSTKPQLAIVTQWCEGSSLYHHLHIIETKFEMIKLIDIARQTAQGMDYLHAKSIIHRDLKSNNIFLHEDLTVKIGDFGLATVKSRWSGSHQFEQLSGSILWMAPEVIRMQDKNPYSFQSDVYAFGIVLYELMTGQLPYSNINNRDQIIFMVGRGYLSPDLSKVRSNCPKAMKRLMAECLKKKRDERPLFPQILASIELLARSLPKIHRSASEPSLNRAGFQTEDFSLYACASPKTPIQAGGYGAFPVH
Chain of GSK3α (P49840 whole entry): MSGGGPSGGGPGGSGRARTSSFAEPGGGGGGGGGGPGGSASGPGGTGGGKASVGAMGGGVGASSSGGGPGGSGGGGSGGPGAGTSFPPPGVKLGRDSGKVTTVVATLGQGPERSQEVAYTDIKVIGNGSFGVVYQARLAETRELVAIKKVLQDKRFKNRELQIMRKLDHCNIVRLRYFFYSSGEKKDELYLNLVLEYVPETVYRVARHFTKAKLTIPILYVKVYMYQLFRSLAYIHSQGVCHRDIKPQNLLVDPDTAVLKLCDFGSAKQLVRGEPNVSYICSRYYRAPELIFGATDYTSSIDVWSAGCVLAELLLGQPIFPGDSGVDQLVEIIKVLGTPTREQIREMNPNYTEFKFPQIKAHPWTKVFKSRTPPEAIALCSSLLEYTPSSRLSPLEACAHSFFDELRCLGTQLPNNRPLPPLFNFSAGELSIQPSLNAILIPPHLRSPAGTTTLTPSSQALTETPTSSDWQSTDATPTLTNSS
Chain of human ether a go-go (hERG) channel (Q12809 whole entry): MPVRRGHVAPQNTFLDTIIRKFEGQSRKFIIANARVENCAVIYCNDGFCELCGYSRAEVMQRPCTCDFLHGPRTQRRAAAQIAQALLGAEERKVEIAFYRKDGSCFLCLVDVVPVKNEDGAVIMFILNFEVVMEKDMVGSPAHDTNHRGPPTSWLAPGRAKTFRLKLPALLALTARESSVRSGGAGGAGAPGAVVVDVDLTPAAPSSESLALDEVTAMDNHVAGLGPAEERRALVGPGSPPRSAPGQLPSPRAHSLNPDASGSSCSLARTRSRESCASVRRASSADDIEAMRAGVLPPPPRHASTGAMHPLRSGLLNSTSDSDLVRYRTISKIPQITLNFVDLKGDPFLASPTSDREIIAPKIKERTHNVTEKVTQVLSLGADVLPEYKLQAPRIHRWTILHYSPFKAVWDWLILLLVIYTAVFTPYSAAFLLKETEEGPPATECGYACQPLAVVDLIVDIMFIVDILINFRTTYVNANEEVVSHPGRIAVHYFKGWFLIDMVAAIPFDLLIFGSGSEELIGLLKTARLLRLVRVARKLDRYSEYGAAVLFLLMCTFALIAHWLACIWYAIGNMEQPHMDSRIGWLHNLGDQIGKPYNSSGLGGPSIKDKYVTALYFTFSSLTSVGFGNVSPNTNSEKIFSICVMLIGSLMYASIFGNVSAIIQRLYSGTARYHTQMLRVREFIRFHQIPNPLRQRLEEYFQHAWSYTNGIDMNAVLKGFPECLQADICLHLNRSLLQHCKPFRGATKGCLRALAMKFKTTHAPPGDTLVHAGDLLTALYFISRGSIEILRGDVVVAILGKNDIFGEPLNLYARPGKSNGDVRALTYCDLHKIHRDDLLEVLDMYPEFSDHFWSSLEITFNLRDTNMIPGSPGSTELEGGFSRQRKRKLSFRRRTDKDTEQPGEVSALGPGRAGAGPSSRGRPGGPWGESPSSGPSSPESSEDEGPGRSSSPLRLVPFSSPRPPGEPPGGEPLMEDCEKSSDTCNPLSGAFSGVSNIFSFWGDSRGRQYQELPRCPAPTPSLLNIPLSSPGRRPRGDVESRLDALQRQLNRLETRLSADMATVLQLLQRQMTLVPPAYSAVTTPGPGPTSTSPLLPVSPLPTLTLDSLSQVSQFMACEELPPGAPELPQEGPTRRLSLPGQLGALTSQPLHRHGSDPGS
Chain of hERG (Q12809 whole entry): as above

SMILES: C#Cc1cc(Nc2nccc(Oc3ccc(NC(=O)Nc4cc(C(C)(C)C)cc(NS(C)(=O)=O)c4OC)c4ccccc34)n2)cc(C(=O)NCCOCCOCCOC)c1 [Compound I, 3-((4-((4-(3-(5-(tert-Butyl)-2-methoxy-3-(methylsulfonamido)phenyl)ureido)naphthalen-1-yl)oxy)pyrimidin-2-yl)amino)-5-ethynyl-N-(2-(2-(2-methoxyethoxy)ethoxy)ethyl)benzamide]
- Fpo [1]: 0.0%
- IL-1β release from biopsies of UC patients [2]: 5 ± 8%
- IL-6 release from biopsies of UC patients [2]: 17 ± 23%
- IL-8 release from biopsies of UC patients [2]: 9 ± 15%
- effect on binding of B-Raf to its standard ligand (B-Raf): did not have any significant effect
- % Parent Remaining ([3]; 0 h): 100%
- % Parent Remaining ([3]; 5 h): 100%
- % Parent Remaining ([3]; 24 h): 100%
- IC50 (GSK3α): 0.411 µM
- IC50 (CYP3A4; CYP3A4, 0 min preincubation): > 15 µM
- IC50 (CYP3A4; CYP3A4, 30 min preincubation): 7.8 µM
- inhibition at 15 µM (CYP3A4; CYP3A4, 0 min preincubation): 31%
- inhibition at 15 µM (CYP3A4; CYP3A4, 30 min preincubation): 54%
- IC50 [4]: > 3 µM
- inhibition at 3 µM (hERG): -12 ± 4%
- number of individual kinase hits, S(1) (non-mutant kinases; 50 nM, % Ctrl <1): 0
- KinomeScan Selectivity Score S(10) (non-mutant kinases; 50 nM, % Ctrl <10): 0.023
- number of individual kinase hits, S(10) (non-mutant kinases; 50 nM, % Ctrl <10): 9
- KinomeScan Selectivity Score S(35) (non-mutant kinases; 50 nM, % Ctrl <35): 0.068
- number of individual kinase hits, S(35) (non-mutant kinases; 50 nM, % Ctrl <35): 27
- KinomeScan Selectivity Score S(1) (non-mutant kinases; 500 nM, % Ctrl <1): 0.038
- number of individual kinase hits, S(1) (non-mutant kinases; 500 nM, % Ctrl <1): 15
- number of individual kinase hits, S(10) (non-mutant kinases; 500 nM, % Ctrl <10): 51
- number of individual kinase hits, S(35) (non-mutant kinases; 500 nM, % Ctrl <35): 78
